Measurements published in patent US20240336604A1 (THE UNITED STATES OF AMERICA, AS REPRESENTED BY THE …, priority 2021, published 2024).

Key:
D3 DAR [1] = target: T1, D3 DAR (Homo sapiens, UniProt P35462); assay: Go BRET activation assay, D3 DAR; assay type: cell-based; conditions: 5 min; EC80 DA (30 nM); read-out: D3 Go BRET Imax
Protocol: Briefly, HEK293T cells transiently expressing either the D2 DAR or D3 DAR and GαoA-Rluc8, untagged-β1, and mVenus-γ2 were harvested with EBSS, plated in 96-well white plates at 20,000 cells/well in DPBS and incubated at RT for 45 min. […] BRET signal was determined by quantifying and calculating the ratio of the light emitted by mVenus (525 nm) over that emitted by RLuc8 (485 nm) using a PHERAstar FSX Microplate Reader (BMG Labtech).

[2] = Mouse plasma and brain pharmacokinetic study; assay type: in vivo; conditions: male CD1 mice, single 40 mg/kg i.p.
Protocol: Mouse Plasma and Brain Tissue Sampling: The pharmacokinetic study was conducted by CRO Pharmaron (Beijing, China). The levels of cmp 17 in mouse plasma and brain tissue samples were assessed as follows. A single IP dose (40 mg/kg) of cmp 17 was administered to male CD1 mice. The formulation consisted of NMP/Solutol/PEG-400/normal saline (v/v/v/v, 10:5:30:55). Plasma and brain samples were collected 0.5 h, 1 h, 2 h, 4 h and 8 h post dose. Brain samples were homogenized at a ratio of 1:3 with PBS (W/V, 1:3). The desired serial concentrations of working solutions were achieved by diluting stock solution of analyte with 50% acetonitrile in water solution. 10 μL of working solutions (0.5, 1, 2, 5, 10, 50, 100, 500, 1000, 10000 ng/mL) were added to 10 μL of the blank CD1 mouse plasma/brain homogenate to achieve calibration standards of 0.5-10000 ng/mL (0.5, 1, 2, 5, 10, 50, 100, 500, 1000, 10000 ng/mL) in a total volume of 20 μL. Five quality control samples at 1 ng/mL, 2 ng/mL, 5 ng/mL, 100 ng/mL and 8000 ng/mL for plasma/brain homogenate were prepared independently of those used for the calibration curves. […] After centrifugation at 4° C., 4700 rpm for 15 min, the supernatant was diluted at a ratio of 1:2 with water, and 10 μL of diluted supernatant was injected into the LC/MS/MS system (SCIEX AB API 4000) for quantitative analysis. […]

D3 DAR [3] = target: T1, D3 DAR; assay: DiscoverX D3 DAR β-arrestin recruitment assay; assay type: cell-based; parameters: host or cells: CHO
Excerpt: (§1) A D3 DAR β-arrestin cell line from DiscoverX (Fremont, CA) was used as described in the protocol below (Table 2). A CHO cell line engineered to overexpress the D3 DAR fused with a small 42-amino acid fragment of β-galactosidase called ProLink™ and a fusion protein consisting of β-arrestin and a larger N-terminal deletion mutant of β-galactosidase was used (DiscoverX catalogue number 93-0579C2). When the D3 DAR is activated by dopamine, it stimulates binding of β-arrestin to ProLink-tagged D3 DARs, and the two complementary parts of β-galactosidase form a functional enzyme. When substrate (PathHunter® Detection reagent, DiscoverX 93-0001) is added, β-galactosidase hydrolyzes it and generates a chemiluminescent signal.

D2 DAR = D2 DAR (Homo sapiens, UniProt P14416); assay: DiscoverX D2 DAR β-arrestin recruitment assay; assay type: cell-based; parameters: host or cells: CHO; conditions: EC80 concentration of DA (1 μM)
Sequence of D2 DAR (P14416 whole entry, the tested form may be a part): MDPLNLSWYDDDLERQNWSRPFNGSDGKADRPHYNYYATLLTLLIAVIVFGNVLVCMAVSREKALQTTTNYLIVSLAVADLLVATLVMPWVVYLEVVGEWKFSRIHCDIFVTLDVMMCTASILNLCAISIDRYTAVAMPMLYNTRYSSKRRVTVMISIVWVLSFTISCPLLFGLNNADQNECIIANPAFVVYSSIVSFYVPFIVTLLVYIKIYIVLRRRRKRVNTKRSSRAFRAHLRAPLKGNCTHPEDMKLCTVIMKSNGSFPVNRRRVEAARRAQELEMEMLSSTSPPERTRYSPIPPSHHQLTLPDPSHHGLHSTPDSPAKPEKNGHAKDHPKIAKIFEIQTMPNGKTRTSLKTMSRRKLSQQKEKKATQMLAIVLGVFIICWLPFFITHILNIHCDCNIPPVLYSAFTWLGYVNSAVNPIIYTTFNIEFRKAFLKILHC
Excerpt: For a secondary-screen and selectivity assays, DAR PathHunter®-arrestin GPCR cell lines from DiscoverX (Fremont, CA) were used. In the D2 DAR PathHunter®-arrestin GPCR cell line, the D2 DAR is overexpressed and fused with a small 42-amino acid fragment of β-galactosidase called ProLink™ on a CHO cellular background expressing a fusion protein of β-arrestin and a larger N-terminal deletion mutant of β-galactosidase (“enzyme acceptor”). When the D2 DAR is activated by dopamine, it stimulates binding of β-arrestin to the ProLink-tagged DAR and the two complementary parts of β-galactosidase form a functional enzyme. When substrate (PathHunter™ Detection reagent) is added, β-galactosidase hydrolyzes it and generates a chemiluminescent signal.

D3 DAR [4] = target: T1, D3 DAR; assay: Functional curve-shift assays using the DiscoverX β-arrestin recruitment assay; assay type: cell-based; parameters: host or cells: CHO
Excerpt: To further assess the mechanism of action of Cmp. […] 1 (FIGS. 4B and 4D). […] Average curves are shown (mean±SEM from at least 3 experiments each performed in triplicate). […] In contrast, increasing concentrations of Cmp.
1. FIG. 6A-C panels show concentration-response curves of dopamine in the absence or presence of increasing concentrations of compound. Cmp. […] 18 (FIG. 6A), Cmp. 5 (FIG. 6B), and Cmp. 17 (FIG. 6C), respectively. Average curves are shown (mean±SEM from at least 3 experiments, each performed in triplicate).
as §1

T1 sequence (P35462 whole entry): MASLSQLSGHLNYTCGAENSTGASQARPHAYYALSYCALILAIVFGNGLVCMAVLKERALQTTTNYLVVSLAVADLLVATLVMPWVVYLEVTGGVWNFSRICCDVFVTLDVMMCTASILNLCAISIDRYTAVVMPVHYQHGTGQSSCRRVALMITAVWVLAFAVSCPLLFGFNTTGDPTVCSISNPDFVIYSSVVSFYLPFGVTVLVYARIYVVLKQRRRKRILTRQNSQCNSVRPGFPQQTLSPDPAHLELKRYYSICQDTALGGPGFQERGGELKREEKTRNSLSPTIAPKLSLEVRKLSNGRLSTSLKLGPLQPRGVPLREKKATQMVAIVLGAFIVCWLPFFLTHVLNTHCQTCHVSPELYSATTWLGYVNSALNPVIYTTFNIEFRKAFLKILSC

- Emax (D3 DAR [1]): > 100%
- brain penetration [2]: brain penetrant
- half-life ([2]; mouse, in vivo, ip): ~4 h
- IC50 (D3 DAR [3]; EC80 concentration of DA (30 nM), read-out: D3 DAR IC50): < 10 µM
- Emax (D3 DAR [3]; Imax=maximum inhibition, EC80 DA (30 nM)): 80 to 100%
- D2 DAR Imax (D2 DAR): NA (“NA” indicates not active)
- IC50 (D2 DAR): > 100 µM
- IC50 (D3 DAR [4]; agonist dopamine, read-out: Functional IC50 for decreasing the Emax of dopamine): 1.7 µM
- mode of antagonism in curve-shift assays (D3 DAR [4]; versus agonist (dopamine, pramipexole)): noncompetitive antagonism
Compound: Cc1[nH]c(C)c(S(=O)(=O)Nc2ccc(C(F)(F)F)c(Cl)c2)c1C(=O)N1CCC(F)(F)C1 [Cmp. 17, N-(3-chloro-4-(trifluoromethyl)phenyl)-4-(3,3-difluoropyrrolidine-1-carbonyl)-2,5-dimethyl-1H-pyrrole-3-sulfonamide]
